Assay results published in patent US20200069775A1, “BRAIN OSTEOCALCIN RECEPTOR AND COGNITIVE DISORDERS” (The Trustees of Columbia University in the City of New York, priority 2017, published 2020).
Where no end group is shown, it is not given here.

Tests used:
[1] = test system: neurons in WT brain sections (ventral tegmental area, substantia nigrae, raphe nuclei); assay: Binding of biotinylated osteocalcin to brain sections (anti-biotin immunofluorescence); set-up: species or system mouse
Method: Brains from 8-week-old mice were snap-frozen in isopentane, and […] thick sections were prepared and desiccated overnight at 4° C. under vacuum. On the following day, sections were rehydrated in ice-cold binding buffer (50 mM TrisHCl [pH 7.4], 10 mM MgCl2, 0.1 mM EDTA and 0.1% BSA) for 15 min and incubated for 1 hr in the presence of biotinylated osteocalcin (3, 30, 300, 3000 ng/ml) or biotynylated recombinant GST as a control (10 μg/ml). After washing in harvesting buffer (50 mM Tris-HCl, pH 7.4), samples were fixed in 4% paraformaldehyde for 15 min, washed in PBS and incubated with goat anti-biotin antibody (1:1000, Vector laboratories) over night at 4° C. Signal was visualized by incubating with anti-goat IgG Cy-3 using Leica DM 5000B microscope (Leica). The binding assays were perform on adjacent sections for each conditions tested. […] This was tested by incubating sections of adult or embryonic (E18.5) WT brains with biotinylated undercarboxylated osteocalcin or GST-biotin alone (30 μg/ml), followed by immunofluorescence analysis using an anti-biotin antibody.

[2] = molecular target: T1, complex containing Gpr158 and the G[…]q subunit (Mus musculus, UniProt Q8C419); assay: Pull-down assay with biotinylated osteocalcin on solubilized hippocampal membranes; format: binding; conditions: solubilized membranes from hippocampal tissue
T1 construct: Pull-down assay using biotinylated-osteocalcin on solubilized Ocn−/− hippocampal membrane; from tissue; host or cells: hippocampi of Ocn-/- mice, membranes solubilized with n-octyl beta-D-thioglucopyranoside
T1 sequence (Q8C419 25-1200): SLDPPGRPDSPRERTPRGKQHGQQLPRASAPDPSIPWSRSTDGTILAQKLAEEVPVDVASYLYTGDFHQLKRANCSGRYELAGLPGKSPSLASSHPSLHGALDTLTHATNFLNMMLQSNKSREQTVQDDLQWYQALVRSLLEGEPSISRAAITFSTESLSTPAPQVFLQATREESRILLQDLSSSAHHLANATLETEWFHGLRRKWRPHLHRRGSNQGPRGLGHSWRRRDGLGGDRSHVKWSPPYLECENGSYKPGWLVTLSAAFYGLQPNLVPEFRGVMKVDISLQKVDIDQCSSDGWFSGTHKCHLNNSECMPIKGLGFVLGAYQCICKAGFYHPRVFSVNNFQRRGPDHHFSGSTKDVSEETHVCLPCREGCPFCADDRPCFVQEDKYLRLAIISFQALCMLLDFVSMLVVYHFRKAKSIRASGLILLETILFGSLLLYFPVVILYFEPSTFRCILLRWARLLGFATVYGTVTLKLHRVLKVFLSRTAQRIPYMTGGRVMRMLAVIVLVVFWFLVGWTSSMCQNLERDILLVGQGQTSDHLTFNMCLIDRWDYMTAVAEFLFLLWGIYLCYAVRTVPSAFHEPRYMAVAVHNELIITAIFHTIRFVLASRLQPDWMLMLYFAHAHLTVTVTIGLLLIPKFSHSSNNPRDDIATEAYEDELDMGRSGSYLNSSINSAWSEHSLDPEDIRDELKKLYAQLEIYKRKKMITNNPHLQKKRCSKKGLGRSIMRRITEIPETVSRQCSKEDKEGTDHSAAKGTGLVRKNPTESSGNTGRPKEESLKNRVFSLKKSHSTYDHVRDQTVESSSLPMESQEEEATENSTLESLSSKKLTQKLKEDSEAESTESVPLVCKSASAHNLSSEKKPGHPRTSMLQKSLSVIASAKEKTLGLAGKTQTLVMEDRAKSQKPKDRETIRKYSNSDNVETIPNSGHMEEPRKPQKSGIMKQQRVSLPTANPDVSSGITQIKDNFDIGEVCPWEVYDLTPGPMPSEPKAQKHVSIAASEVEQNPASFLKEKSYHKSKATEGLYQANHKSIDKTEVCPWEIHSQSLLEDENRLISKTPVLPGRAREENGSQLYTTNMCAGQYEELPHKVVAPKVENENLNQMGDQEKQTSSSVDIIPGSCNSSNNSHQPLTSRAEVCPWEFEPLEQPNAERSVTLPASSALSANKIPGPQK
T1 sequence (P21279 1-359 partner): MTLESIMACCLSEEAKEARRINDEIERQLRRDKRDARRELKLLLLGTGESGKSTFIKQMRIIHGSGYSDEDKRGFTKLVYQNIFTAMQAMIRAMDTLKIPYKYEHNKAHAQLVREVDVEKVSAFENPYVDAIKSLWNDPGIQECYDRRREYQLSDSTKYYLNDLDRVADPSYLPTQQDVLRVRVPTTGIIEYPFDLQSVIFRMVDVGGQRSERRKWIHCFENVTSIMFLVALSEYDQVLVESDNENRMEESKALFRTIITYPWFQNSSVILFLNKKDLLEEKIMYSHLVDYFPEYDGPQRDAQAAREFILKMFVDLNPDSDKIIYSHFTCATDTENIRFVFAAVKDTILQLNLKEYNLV
Method: For Western blotting, frozen hippocampi from adult mice were lysed and homogenized in 250 µl tissue lysis buffer (25 mM Tris HCl 7.5; 100 mM NaF; 10 mM Na4P2O7; 10 mmM EDTA; 1% NP 40). Proteins were transferred to nitrocellulose membranes, and blocked with TBST-5% BSA for 1 hour. Antibodies: anti-Runx2 M-70 sc-10758, Santa Cruz, anti-BDNF: sc-546, Santa Cruz; anti-tubulin: T6199, Sigma; anti-Gpr158 ABIN1535721, Assay Biotechnology; anti-Na,K ATPase 3010S Cell Signaling , were diluted (1:1000) in TBST-5% BSA and incubated overnight at 4° C. HRP-coupled secondary antibodies and ECL were used to visualize the signal. Western blot bands were quantified using ImageJ software. cAMP accumulation was measured in primary hippocampal neurons by using cAMP Parameter Assay Kit (R&D systems) and performed in primary hippocampal neurons (DIV15) following manufacturer instructions. For IP1 accumulation was determined in primary hippocampal neurons (DIV15) by using IP-One ELISA assay kit (Cisbio) following manufacturer instructions. […]
Streptavidin were added for 30 minutes at room temperature followed by PBS washes. […] For hormonal measurement; circulating levels of the carboxylated, undercarboxylated or uncarboxylated forms of osteocalcin were measured by ELISA. CTX content in serum (ng/ml) were measured with specific ELISAs (RatLaps™ (CTX-I) EIA (Immunodiagnosticsystems).

With “biotinylated osteocalcin: biotin-labelled undercarboxylated osteocalcin used for binding and pull-down assays (YLGASVPSPDPLEPTREQCELNPACDELSDQYGLKTAYKRIYGITI; ends and bridges not checked; also: biotin label, attachment site not given here)” the “binding in the brainstem” value ([1]; WT brain sections) was “bound to neurons of the raphe nuclei”, the “binding in the midbrain” value ([1]; WT brain sections) was “bound to the ventral tegmental area and the substantia nigrae” and the “binding to neuronal populations in brain sections” value ([1]; adult or embryonic (E18.5) WT brain sections) was “bound to several neuronal populations in the forebrain, midbrain, and brainstem”. For the same substance, the “specificity of binding in midbrain and brainstem (competition)” value ([1]; excess of unlabeled osteocalcin or of GST) was “specific since it was chased away by an excess of unlabeled osteocalcin but not by an excess of GST” and the “binding in pull-down assay” value [2] was “could bind a complex containing Gpr158 and the G[…]q subunit”.
